{"source": "patent US20110166149A1", "about": "“PTERIDINE DERIVATIVES FOR TREATING RESPIRATORY DISEASE” (TARGEGEN INC., priority 2008, published 2011)", "assay": "Inhalation exposure: Compound A concentration in lung, plasma and BALF (Example 2)", "type": "in vivo, BALB/c mice", "details": "for AUC(0-inf) / Cmax / Tmax / AUC(0-t) / concentration at 0.083 h / concentration at 0.25 h / concentration at 0.5 h / concentration at 1 h / concentration at 2 h / concentration at 4 h / concentration at 8 h / concentration at 12 h / concentration at 24 h: male, BALB/c; for AUC(0-inf) / Cmax / Tmax / AUC(0-t): inhaled or intranasal; for AUC(0-t): read-out: AUC(0-24); for concentration at 0.083 h / concentration at 0.25 h / concentration at 0.5 h / concentration at 1 h / concentration at 2 h / concentration at 4 h / concentration at 8 h / concentration at 12 h / concentration at 24 h: mouse, inhaled, mice, 30 min inhalation", "method": "A series of compositions for pulmonary delivery were prepared by making a 20% suspension of compound A in a 5% tyloxapol solution in water. Particle size reduction was achieved using a colloid mill (magicLAB®, MK module, for 6 hours @ 12,000 rpm, while maintaining a temperature below 50° C.). Samples at 4% w/v compound A were prepared by dilution with DI water.\nLow (0.02 mg/L), mid (0.07 mg/L), and high (0.20 mg/L) target aerosol concentrations 0.3% Compound A/0.075% tyloxapol, 0.6% Compound A/0.15% tyloxapol, and 1.5% Compound A/0.375% tyloxapol suspensions were used. These low, mid, and high target formulations were prepared as follows: […]\n4% compound A and 1% tyloxapol were removed from refrigeration and approximately 2.25, 4.5, and 12 mL were transferred into clean 50 mL graduated plastic tubes, labeled 0.3% A/0.075% tyloxapol, 0.6% A/0.15% tyloxapol, and 1.5% A/0.375% tyloxapol suspensions and allowed to warm to room temperature. Each was diluted to 20 mL with ultra pure water and vortexed until completely mixed. Each formulation was made the morning of exposure to alleviate any storing/stability issues.\nEighty-seven (87) male BALB/c mice (8 weeks of age on arrival and 18.6-24.6 g on exposure day) were purchased from Charles River Laboratories (Raleigh, N.C.). The three animals with the lowest body weights and the three with the highest body weights were excluded from the study on the day of randomization. The remaining eighty-one (81) animals were assigned to the study. Temperatures and relative humidity (RH) in animal housing areas were within the target range specified in the protocol.\nAnimals were exposed to one of three concentrations of Compound A aerosols for a target of 30 min.\nThe actual concentrations of test article in the exposure atmospheres were determined by chemical analysis of timed filter samples collected directly from a nose-only exposure port during exposure. In addition, one impactor sample was obtained to verify particle size distribution (PSD), which is characterized by mass median aerodynamic diameter (MMAD) and geometric standard deviation (GSD). The filters and impactor stages were analyzed chemically by LRRI and are described below.", "key": {"[1]": {"details": "0.15 mg/kg, mouse BALF, aerosol conc. 0.02 mg/L"}, "[2]": {"details": "0.27 mg/kg, mouse BALF, aerosol conc. 0.07 mg/L"}, "[3]": {"details": "0.7 mg/kg, mouse BALF, aerosol conc. 0.2 mg/L"}, "[4]": {"details": "mouse lung, aerosol conc. 0.02 mg/L"}, "[5]": {"details": "mouse lung, aerosol conc. 0.07 mg/L"}, "[6]": {"details": "mouse lung, aerosol conc. 0.2 mg/L"}, "[7]": {"details": "BALF, nominal aerosol 0.02 mg/L, read-out: Compound A concentration BALF"}, "[8]": {"details": "BALF, nominal aerosol 0.07 mg/L, read-out: Compound A concentration BALF"}, "[9]": {"details": "BALF, nominal aerosol 0.2 mg/L, read-out: Compound A concentration BALF"}, "[10]": {"details": "lung, nominal aerosol 0.02 mg/L, read-out: Compound A concentration Lung"}}, "note": "Where two headings read alike, the source gives them in different places."}
{"smiles": "Nc1nc(N)c2nc(-c3cccc(O)c3)c(-c3cccc(O)c3)nc2n1", "note": "[Compound A, 6,7-bis(3-hydroxyphenyl)-pteridine-2,4-diamine]", "values": [{"measurement": "time course of concentration in lung and BALF", "setting": "FIGS. 1 and 2, higher concentrations for mice exposed to higher doses", "value": "dose dependent"}, {"measurement": "Maximum concentration in the BALF", "setting": "Group A (0.02 mg/L)", "value": 1190, "unit": "ng/mL"}, {"measurement": "Maximum concentration in the lung", "setting": "Group A (0.02 mg/L)", "value": 20.9, "unit": "µg/g"}, {"measurement": "time of maximum concentration in the BALF", "setting": "Group A (0.02 mg/L)", "value": 0.25, "unit": "h"}, {"measurement": "time of maximum concentration in the lung", "setting": "Group A (0.02 mg/L)", "value": 0.08, "unit": "h"}, {"measurement": "Maximum concentration in the BALF", "setting": "Group B (0.07 mg/L)", "value": 2140, "unit": "ng/mL"}, {"measurement": "time of maximum concentration in the BALF", "setting": "Group B (0.07 mg/L)", "value": 0.08, "unit": "h"}, {"measurement": "time of maximum concentration in the lung", "setting": "Group B (0.07 mg/L)", "value": 2.00, "unit": "h"}, {"measurement": "Maximum concentration in the BALF", "setting": "Group C (0.2 mg/L)", "value": 5670, "unit": "ng/mL"}, {"measurement": "time of maximum concentration in the BALF", "setting": "Group C (0.2 mg/L)", "value": 0.25, "unit": "h"}, {"measurement": "time of maximum concentration in the lung", "setting": "Group C (0.2 mg/L)", "value": 0.50, "unit": "h"}, {"measurement": "plasma levels", "setting": "all aerosol concentrations, generally", "value": "< LLOQ"}, {"measurement": "AUC(0-inf)", "setting": "[1]", "value": 21700, "unit": "ng·h/mL"}, {"measurement": "Cmax", "setting": "[1]", "value": 1190, "unit": "ng/mL"}, {"measurement": "Tmax", "setting": "[1]", "value": 15, "unit": "min"}, {"measurement": "AUC(0-t)", "setting": "[1]", "value": 8850, "unit": "ng·h/mL"}, {"measurement": "AUC(0-inf)", "setting": "[2]", "value": 30400, "unit": "ng·h/mL"}, {"measurement": "Cmax", "setting": "[2]", "value": 2140, "unit": "ng/mL"}, {"measurement": "Tmax", "setting": "[2]", "value": 4.8, "unit": "min"}, {"measurement": "AUC(0-t)", "setting": "[2]", "value": 18100, "unit": "ng·h/mL"}, {"measurement": "AUC(0-inf)", "setting": "[3]", "value": 54300, "unit": "ng·h/mL"}, {"measurement": "Cmax", "setting": "[3]", "value": 5670, "unit": "ng/mL"}, {"measurement": "Tmax", "setting": "[3]", "value": 15, "unit": "min"}, {"measurement": "AUC(0-t)", "setting": "[3]", "value": 37200, "unit": "ng·h/mL"}, {"measurement": "Cmax", "setting": "[4]", "value": 20900, "unit": "ng/g"}, {"measurement": "Tmax", "setting": "[4]", "value": 4.8, "unit": "min"}, {"measurement": "Cmax", "setting": "[5]", "value": 22700, "unit": "ng/g"}, {"measurement": "Tmax", "setting": "[5]", "value": 120, "unit": "min"}, {"measurement": "Cmax", "setting": "[6]", "value": 67200, "unit": "ng/g"}, {"measurement": "Tmax", "setting": "[6]", "value": 30, "unit": "min"}, {"measurement": "concentration at 0.083 h", "setting": "[7]", "value": "896 ± 41.7", "unit": "ng/mL"}, {"measurement": "concentration at 0.25 h", "setting": "[7]", "value": "1190 ± 35.4", "unit": "ng/mL"}, {"measurement": "concentration at 0.5 h", "setting": "[7]", "value": "457 ± 219", "unit": "ng/mL"}, {"measurement": "concentration at 1 h", "setting": "[7]", "value": "831 ± 288", "unit": "ng/mL"}, {"measurement": "concentration at 2 h", "setting": "[7]", "value": "813 ± 117", "unit": "ng/mL"}, {"measurement": "concentration at 4 h", "setting": "[7]", "value": "541 ± 409", "unit": "ng/mL"}, {"measurement": "concentration at 8 h", "setting": "[7]", "value": "286 ± 156", "unit": "ng/mL"}, {"measurement": "concentration at 12 h", "setting": "[7]", "value": "296 ± 19.1", "unit": "ng/mL"}, {"measurement": "concentration at 24 h", "setting": "[7]", "value": "223 ± 91.2", "unit": "ng/mL"}, {"measurement": "concentration at 0.083 h", "setting": "[8]", "value": "2140 ± 1340", "unit": "ng/mL"}, {"measurement": "concentration at 0.25 h", "setting": "[8]", "value": "1190 ± 270", "unit": "ng/mL"}, {"measurement": "concentration at 0.5 h", "setting": "[8]", "value": "1350 ± 559", "unit": "ng/mL"}, {"measurement": "concentration at 1 h", "setting": "[8]", "value": "1250 ± 359", "unit": "ng/mL"}, {"measurement": "concentration at 2 h", "setting": "[8]", "value": "930 ± 818", "unit": "ng/mL"}, {"measurement": "concentration at 4 h", "setting": "[8]", "value": "1310 ± 1010", "unit": "ng/mL"}, {"measurement": "concentration at 8 h", "setting": "[8]", "value": "800 ± 225", "unit": "ng/mL"}, {"measurement": "concentration at 12 h", "setting": "[8]", "value": "569 ± 142", "unit": "ng/mL"}, {"measurement": "concentration at 24 h", "setting": "[8]", "value": "512 ± 128", "unit": "ng/mL"}, {"measurement": "concentration at 0.083 h", "setting": "[9]", "value": "3150 ± 110", "unit": "ng/mL"}, {"measurement": "concentration at 0.25 h", "setting": "[9]", "value": "5670 ± 2550", "unit": "ng/mL"}, {"measurement": "concentration at 0.5 h", "setting": "[9]", "value": "2220 ± 1910", "unit": "ng/mL"}, {"measurement": "concentration at 1 h", "setting": "[9]", "value": "2570 ± 2030", "unit": "ng/mL"}, {"measurement": "concentration at 2 h", "setting": "[9]", "value": "3190 ± 2580", "unit": "ng/mL"}, {"measurement": "concentration at 4 h", "setting": "[9]", "value": "3350 ± 687", "unit": "ng/mL"}, {"measurement": "concentration at 8 h", "setting": "[9]", "value": "1370 ± 185", "unit": "ng/mL"}, {"measurement": "concentration at 12 h", "setting": "[9]", "value": "1050 ± 799", "unit": "ng/mL"}, {"measurement": "concentration at 24 h", "setting": "[9]", "value": "694 ± 56", "unit": "ng/mL"}, {"measurement": "concentration at 0.083 h", "setting": "[10]", "value": "20900 ± 13200", "unit": "ng/g"}, {"measurement": "concentration at 0.25 h", "setting": "[10]", "value": "10100 ± 1390", "unit": "ng/g"}, {"measurement": "concentration at 0.5 h", "setting": "[10]", "value": "11700 ± 8050", "unit": "ng/g"}, {"measurement": "concentration at 1 h", "setting": "[10]", "value": "11800 ± 7260", "unit": "ng/g"}]}
